PMC10994559 (PLOS Neglected Tropical Diseases, 2024)
Entries after “also recorded” stand apart in the source; their conditions may differ.

Columns and labels:
[1] = test system: L. infantum promastigotes; assay: L. infantum promastigote viability, resazurin reduction; assay type: cell-based, Leishmania infantum; details: Leishmania infantum, 72 h; for viability at 2.5 µM: read-out: Residual viability, L. infantum promastigote (2.5 µM); for viability at 25 µM: read-out: Residual viability, L. infantum promastigote (25 µM)
Source text: The infectivity of the parasites was boosted by passaging in Balb/c mice and culturing the infected lymph nodes after six weeks. L. infantum (MHOM / BR / 76 / M4192) parasite was passaged in the same media formulation with 0.5% urine.

[2] = test system: L. major axenic amastigotes; assay: L. major axenic amastigote viability, resazurin reduction; details: Leishmania major; for viability at 2.5 µM / viability at 25 µM: 72 h; for viability at 2.5 µM: read-out: Residual viability, L.major amastigote (2.5 µM); for viability at 25 µM: read-out: Residual viability, L.major amastigote (25 µM); for EC50: read-out: EC50 L. major axenic amastigote
Method in brief: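 Axenic L. major LV561 amastigotes were grown in Grace medium with 20% FCS, pH 5.4, at 33°C and seeded at 0.5x10^5 cells/well with compounds for 72 h. Resazurin was then added for 6 h and fluorescence read at ex 550/em 590 nm; hits were retested at 2.5 μM.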

T. cruzi trypomastigotes = assay: T. cruzi viability, resazurin reduction; assay type: cell-based, Trypanosoma cruzi; details: 72 h; for viability at 2.5 µM / viability at 25 µM: Trypanosoma cruzi; for viability at 2.5 µM: read-out: Residual viability, T.cruzi (2.5 µM), 2.5 µM, 72 h; for viability at 25 µM: read-out: Residual viability, T.cruzi (25 µM), 25 µM, 72 h
Method in brief: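 Y-strain trypomastigotes kept in supplemented liver infusion tryptose broth with 10% FCS, pH 7.2, at 28°C. Viability by fluorescence resazurin reduction; single-point screen at 2.5 μM, then 18-concentration dose response. Amphotericin B as control drug.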

[3] = Cytotoxicity assay J774, resazurin reduction; assay type: cell-based, murine; details: mouse, J774 macrophage cells, cytotoxicity, 72 h; for viability at 72 h, 2.5 µM: read-out: Residual viability, J774 (2.5 µM); for viability at 72 h, 25 µM: read-out: Residual viability, J774 (25 µM)
Method in brief: (§1)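 J774 and HepG2 cells were seeded at 0.5x10^5 cell/well and exposed to serially diluted compounds for 72 h at 37°C, 5% CO2. Viability was read by fluorescence resazurin reduction (λEx 550 nm, λEm 590 nm).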

[4] = test system: Murine macrophage cells (J774); assay: Cytotoxicity assay J774, resazurin reduction; assay type: cell-based; details: cytotoxicity, 72 h
Method in brief: as §1

L. major = assay: Cutaneous leishmaniasis mouse model: lymph node parasite burden (qPCR) and footpad swelling; assay type: in vivo, Balb/c mice; details: for Parasite load in popliteal lymph nodes (qPCR kDNA) vs DMSO control: PHT-39 13.75 mg/kg i.p. daily or s.c. every other day; for Parasite load in popliteal lymph nodes (qPCR kDNA) vs DMSO control / Footpad swelling vs DMSO control: AmB 8 mg/kg i.p.; for Footpad swelling vs DMSO control: day 21 post challenge
Experimental: Female Balb/c mice, aged 6–8 weeks, were purchased from the breeding stock in Czech Republic (Animalab, Czech Republic). Animals were kept under standard conditions according to European ethical guidelines for experimental animals.
(§2) L. major metacyclic promastigotes were prepared from a five day stationary phase culture through Ficoll gradient centrifugation according to previous studies with minor changes: Briefly, a 20% and 10% Ficoll gradient were prepared in PBS and M199 media, respectively and placed in a 14 ml falcon tube. Then, 1x10^9 L. major promastigotes were loaded on top of gradient and centrifuged. Metacyclic parasites were collected between two layers. Four groups of mice (n = 6) were challenged by subcutaneous injection of 2x10^6 stationary phase metacyclic promastigotes (50 μl in PBS) into the left hind footpad. Two weeks after infectious challenge, animals were treated by i.p or intralesional (s.c) PHT-39 injection (13.75 mg/kg body weight), daily or every other day, respectively, for ten days. AmB (8 mg/kg body weight) was applied as positive control drug (i.p injection for ten days) and 5% DMSO in distilled water was applied as negative control (s.c injection for ten days) (Table 1).
(§3) Every four days after the challenge, body weight was monitored and footpad swelling changes were measured (Footpad swelling = (height + width)/2) with a metric caliper (Kroeplin, IP65, D-series, external measuring gauge).
After the 10 days course of treatment all animals were sacrificed, and popliteal lymph nodes of each infected footpad were collected for parasite load determination. Genomic DNA was extracted from the lymph nodes (DNeasy Blood and Tissue kit, Qiagen). Equal concentration of samples (125 ng) was applied to quantify leishmania kDNA with primers RV1(forward: 5’-[…]-3’) and RV2 (reverse: 5’-CCACCTG […]-3’). qPCR data was normalized using the murine house-keeping gene GAPDH amplified with primers (forward:5’[…]3’; reverse: 5’[…]3’) in parallel using Maxima SYBR green qPCR master (Thermo). qPCR was performed using Biorad CFX96 device with 95°C/ 10 min (initial denaturation), then 95°C/15s (denaturation), 60°C /30s (annealing) and 72°C/ 40s (extension) over 40 cycles. For ΔCT calculation of samples, every CT were subtracted from the same on GAPDH. Then, ΔΔCT of each group was normalized according to negative control group (DMSO).
The most significant requirement of an anti-leishmanial drug is its ability to reduce the parasite burden in the infected host. […] Briefly, four groups of 6–8 weeks Balb/c mice were challenged with 2 x 10^6 L. major promastigotes subcutaneously injected into the hind footpad. Treatment started after two weeks when a wound started to form. Two groups were treated with PHT-39 compound at doses of 13.75 mg/kg either via i.p route, daily, or s.c route, every other day for 10 days. One group received a daily dosage of AmB as a control, and another infected non-treated group was included in the study. After 10 days, popliteal lymph nodes were collected to assess parasite burden and immune response stimulation was studied in spleen cell culture supernatants.

[5] = Body weight and tolerability during treatment in the mouse model; assay type: in vivo, Balb/c mice; details: for Body weight during treatment course: PHT-39 13.75 mg/kg i.p. or s.c., AmB 8 mg/kg i.p., vs DMSO
Experimental: as §2, §3

[6] = PHT-39 13.75 mg/kg i.p. or s.c.

Row | Structure (SMILES) | viability at 2.5 µM [1] [%] | viability at 25 µM [1] [%] | viability at 2.5 µM [2] [%] | viability at 25 µM [2] [%] | EC50 [2] [nM] | Residual viability, T.cruzi (25 µM) (T. cruzi trypomastigotes; 25 µM) [%] | viability at 2.5 µM (T. cruzi trypomastigotes) [%] | viability at 25 µM (T. cruzi trypomastigotes) [%] | viability at 72 h, 2.5 µM [3] [%] | viability at 72 h, 25 µM [3] [%] | EC50 ([4]; Mus musculus, J774, 72 h) [nM] | EC50 [4] [nM] | Parasite load in popliteal lymph nodes (qPCR kDNA) vs DMSO control (L. major; 10 days) | Footpad swelling vs DMSO control (L. major; [6]) | Body weight during treatment course [5] | Elimination of L. major infection in cutaneous leishmaniasis model (L. major; PHT-39 13.75 mg/kg i.p. or s.c., 10 days, 13.75 mg/kg) | Parasite burden in lymph nodes (L. major; PHT-39 13.75 mg/kg s.c. every other day) | Compound related toxicity in mice ([5]; intraperitoneal or subcutaneous injection for 10 and 5 days)
1 | C[C@@H]1[C@H](O)[C@@H](C)/C=C/C=C/C=C/C=C/C=C/C=C/C=C/[C@H](O[C@@H]2O[C@H](C)[C@@H](O)[C@H](N)[C@@H]2O)C[C@@H]2O[C@](O)(C[C@@H](O)C[C@@H](O)[C@H](O)CC[C@@H](O)C[C@@H](O)CC(=O)O[C@H]1C)C[C@H](O)[C@H]2C(=O)O [AmB, amphotericin B, reference compound] | 2.55 ± 0.17 | 5.4 ± 0.73 | 2.71 ± 1.02 | 0.33 ± 2.12 | 300 | 7.37±1.09 | 8.07 ± 0.38 | 7.4 | 101 ± 11.8 | 57.73 ± 0.52 | > 10000 | > 16000 | reduce the parasite load significantly; also recorded: reduction of parasite load in the AmB group was significant | reduced significantly; also recorded: effectively reduced the swelling | significant differences with other groups |  |  | 
2 | CC[C@@H](C)[C@H](c1nc2ccccc2n1Cc1cn(-c2ccc(C(F)(F)F)cc2)nn1)N1C(=O)c2ccccc2C1=O [PHT-39] | 58.8 ± 1.22 | 7.71 ± 1.03 | 62.1 ± 3.43 | 2.6 | 2600 ± 1800 |  | 57.6 ± 1.04 | 31.5 ± 1.51 | 98.3 ± 2.92 | 68 ± 9.09 | > 16000 |  | did not show a significant difference; also recorded: not significantly changed | Neither of the test groups showed significant difference with the DMSO control; also recorded: did not show any significant changes | did not affect the body weight | unable to eradicate L. major infection; also recorded: failed to eliminate the Leishmania infection | lower but insignificant parasite burden | did not expose any compound related toxicity
